Patent US10538099B2, “Inkjet recording apparatus, printer, and method for manufacturing cured product” (Ricoh Company, Ltd., priority 2016, dated 2020)
Like-named read-outs stand apart in the source and are kept apart here.

Columns and labels:
[1] = evaluated by a test method based on OECD Test Guideline 406 in MSDS; cited from earlier work
female mice = assay: Skin sensitization test according to the LLNA (Local Lymph Node Assay), BrdU intake; assay type: in vivo; conditions: test substance 50.0 w/v % in acetone/olive oil 4/1, 25 μL/auricle once a day for three days; SI less than 3 = negative in skin sensitizing property
Procedure: Stimulus index (SI) was measured by a skin sensitization test according to the LLNA (Local Lymph Node Assay) as follows.
As a positive control, α-hexyl cinnamaldehyde (HCA, product of Wako Pure Chemical Industries, Ltd.) was used.
As a medium, a mixture liquid of acetone (product of Wako Pure Chemical Industries, Ltd.) and olive oil (product of Fudimi Pharmaceutical Co., Ltd.) in a volume ratio of 4/1 was used.
Before treated with the test materials, the positive control, or the medium control, female mice were acclimated for 8 days including 6-day quarantine. No abnormalities were found in all the mice (used animals) during the quarantine/acclimation period.
Based on the body weights measured 2 days before the initiation of sensitization, they were categorized into 2 groups (4 mice/group) by the body weight stratified random sampling method so that the body weight of each individual was within ±20% of the average body weight of all the individuals. Each of the used animals was 8 weeks old to 9 weeks old at the time of the initiation of sensitization. […]
About 24 hours after the administration of BrdU, the used animals were allowed to undergo euthanasia, and their auricular lymph nodes were sampled. […] Also, the average of the weights of the auricular lymph nodes and the standard error thereof were calculated for each group. […]

[2] = evaluated by Maximization test method according to the document; cited from earlier work
[3] = risk phrase code R43 or H317; cited from earlier work

Row | Molecule | skin sensitizing property [1] | skin sensitizing property [2] | further results
1 | O=C(c1ccccc1)C1(O)CCCCC1 [1-Hydroxy-cyclohexyl phenyl ketone] | None |  | 
2 | CCC(Cc1ccc(C)cc1)(C(=O)c1ccc(N2CCOCC2)cc1)N(C)C (stereo not drawn) [2-Dimethylamino-2-(4-methylbenzyl)-1-(4-morpholine-4-yl-phenyl)butane-1-one] | None |  | 
3 | C=C(C)C(=O)OCC(CO)OC(=O)C(=C)C (stereo not drawn) [Glycerol dimethacrylate] |  |  | SI measured by the LLNA test (stimulus index) (female mice): 1.2
4 | C=C(C)C(=O)OCCCCCC [n-Hexyl methacrylate] |  | Negative | 
5 | C=C(C)C(=O)OCCCCC [n-Pentyl methacrylate] |  | Negative | 
6 | C=CC(=O)OC(C)(C)C [t-Butyl acrylate] |  |  | skin sensitizing property [3]: Positive
7 | C=C(C)C(=O)OC(C)(C)C [t-Butyl methacrylate] |  | Negative | 
8 | Caprolactone-modified dipentaerythritol hexaacrylate | Negative |  | 
9 | Tricyclodecane dimethanol dimethacrylate |  |  | SI measured by the LLNA test (stimulus index) (female mice): 1.3
